From patent publication US20080227222A1, “Method for the detection of target molecules by fluorescence polarization using peptide mimics” (priority 2007, published 2008) come the findings set out here.

For assay [1], the system named is anti-cortisol antibody (ACA). The assay is described as follows: ELISA binding of phagotopes to anti-cortisol antibody (biopanning screen). The following applies: phagotope expressing peptide, FIG. 2. The method, then:
Identification of reactive phagotopes was conducted by either direct, where the phagotopes are coated directly to the plate, or capture ELISA, were the phagotopes are tethered to the plate via the selection antibody. The two ELISA methods were employed because direct ELISA identifies highly reactive phagotopes that are likely to contain a strong motif, whereas the capture ELISA is more sensitive, therefore also selecting for phagotopes involving only weak interactions. For the direct ELISA, phage preparations were diluted in sterile PBS and duplicate samples of 100 μl/well were added to a 96-well microtitre plate. Plates were left overnight at 4° C., blocked for 2 hours at room temperature with 1% skimmed milk powder and 0.05% Tween 20 in PBS ph 7.4 and washed three times in Tris-buffered saline, pH 7.4, containing 0.05% polyoxyethylene (20) sorbitan monolaurate (TWEEN 20™). 100 μl of specific antibody diluted to 1 μg/ml in 1% PBS-polyoxyethylene (20) sorbitan monolaurate were added and left overnight. […] Absorbances were read at 415 nm after 30 minutes and 60 minutes. […]
A general note: An ELISA detects its analyte on a solid surface through an enzyme-linked reagent.

In assay [2] the test system is anti-cortisol antibody (ACA). The assay is described as follows: Competition ELISA: increasing cortisol against plate-coated phagotope for anti-cortisol antibody. The format is binding. The following applies: increasing amounts of cortisol, constant phage, FIG. 3. The method, then: Plates were coated with phagotopes and blocked as for the direct ELISA. […] Increasing amounts of cortisol was then added to 100 μl of specific antibody in 1% PBS-polyoxyethylene (20) sorbitan monolaurate. 100 μl replicates (4-6) of antibody/cortisol inhibitor was then left overnight.
The plates were washed and developed as for the direct ELISA. The results of these studies are illustrated in FIG. 3.

For assay [3], the system named is anti-gamma-interferon antibody. In words: Competition ELISA: increasing gamma-interferon against constant phage containing peptide mimic. The format is binding. The conditions noted are these: constant phage containing the mimic, detected with anti-phage antibody. The method, then:
In order to identify peptide mimics, the procedure for described in Example 1 was followed. FA42™ anti-Gamma-interferon monoclonal antibody (Cellestis, Inc, Valencia, Calif.) was used in the screening of peptide mimics.
Identification of epitope sites that the peptides represented were then determined by comparing the peptide sequences with the known γ-interferon sequence. The identified peptides were then evaluated by the ability of gamma-interferon to inhibit binding of anti-γ-interferon antibody in ELISA. The results of this study is illustrated in FIG. 3 for peptide IFN-28. […] Phage binding was identified, in this study, using a specific anti-phage antibody.

Assay [4] concerns anti-γ-interferon antibody (FA42). The assay is described as follows: Competition of fluorescently tagged peptides with IFN-41 expressing phage for binding to FA42. The following applies: fluorescently tagged peptide against phage. The method, then: Further analysis of the peptide mimics sought to ascertain whether these peptides operated in the same manner as they do when expressed on the surface of the phage. In order to ascertain if these peptides operated in the same manner as they do when expressed on the surface of the phage, a competition assay was performed. In this assay, the newly created peptides were used to compete with the peptides on the surface of the phage for binding to FA42.
A gradient of inhibition of IFN-41 expressing phage binding by the two peptides is shown. The control peptide (ACA-20) is a mimic of cortisol. […] Additionally, FIG. 5 illustrates gradient inhibition of IFN-41 and IFN-19 using anti-gamma-interferon antibody.

In the case of “ACA 20 (1): phagotope expressing peptide with high anti-cortisol antibody binding; probably clone of ACA-20 (YFTPVFINPTQV)”, the anti-cortisol antibody binding entry in assay [1] was “comparatively high anti-cortisol antibody binding”. For the same substance, in assay [2], the “competition by cortisol for antibody binding” value is “overlapping, dose-response competitive binding curves”.

With “ACA 20 (2): phagotope expressing peptide with high anti-cortisol antibody binding; probably clone of ACA-20 (YFTPVFINPTQV)”, the anti-cortisol antibody binding result in assay [1] was “comparatively high anti-cortisol antibody binding”. The “competition by cortisol for antibody binding” value in assay [2] was “overlapping, dose-response competitive binding curves”.

For the substance “SQYENNH (CSQYENNHC; listed as Homo sapiens) [IFN-28]”, in assay [3], the “competition for binding to anti-gamma-interferon antibody” value is “graded competition”.

“TQYEQHY (CTQYEQHYC; listed as Homo sapiens) [IFN-41]”: the “competition with IFN-41 expressing phage for binding to anti-γ-interferon antibody” value (shortened to “competition with IFN-41 expressing phage”) in assay [4] is “competed”.

In the case of TQYSQQM (CSQYSQLYC) [IFN-19], the “competition with IFN-41 expressing phage” value in assay [4] is “competed”.

In the case of “YFTPVFINPTQV (listed as Homo sapiens) [ACA-20, control peptide in the gamma-interferon assay]”, the “competition with IFN-41 expressing phage” value in assay [4] is reported as “did not compete”.
